Test results as given in publication PMC4885039, “A Scorpion Defensin BmKDfsin4 Inhibits Hepatitis B Virus Replication in Vitro” (Toxins, 2016).
Residues, ends and D or L forms follow the SMILES beside them.

Experiments:
human erythrocytes = assay: Hemolysis assay; assay type: cell-based; settings: 37 °C, 1 h, absorbance at 570 nm, 0 to 200 μM
Method: Erythrocytes were obtained from fresh human blood by centrifugation for 10 min at 1000× g. After washed by HEPES buffer for three times, erythrocytes were resuspended in normal saline and seeded in 96-well plates (10^7 cells per well). BmKDfsin4 was added in a serial of concentrations, 0.1% triton-X100 was used as positive control and normal saline was used as negative control. After incubated at 37 °C for 1 h, the supernatants were collected by centrifugation for 10 min at 1000× g. The absorbance of hemoglobin was measured at a wavelength of 570 nm.

HBsAg = assay: Western blot of intracellular HBsAg in HepG2.2.15 cell lysates; assay type: cell-based, Hepatitis B virus; settings: 10 μM, HepG2.2.15 cell lysate
Method: (§1) Cells were resuspended with radioimmunoprecipitation (RIPA) assay buffer (50 mM Tris-HCl (pH 7.5), 150 mM sodium chloride, 1% Nonidet P40, and 0.5% sodium deoxycholate) with phenylmethylsulfonyl fluoride (PMSF) and incubated on ice for 30 min for fully lysis. Cell lysates were electrophoresed in sodium dodecyl sulfate-polyacrylamide (SDS) gels and transferred to nitrocellulose membranes (Millipore, Darmstadt, Germany). The antibodies used for probing were as follows: mouse monoclonal anti-HBsAg (1:200 dilution, Abcam, Cambridge, UK), rabbit polyclonal anti-HBV core (1:500 dilution, Dako-Cytomation, Carpinteria, CA, USA), mouse monoclonal anti-Hep B xAg (1:200 dilution, Santa Cruz Biotechnology, Dallas, TX, USA), mouse monoclonal anti-Hep B Pol (1:200 dilution, Santa Cruz Biotechnology, Dallas, TX, USA), and anti-β-actin (1:5000 dilution, Santa Cruz Biotechnology, Dallas, TX, USA) were used as primary antibodies, and the secondary antibodies were conjugated to horseradish peroxidase (HRP).

HBV RT = assay: Western blot of intracellular HBV RT in HepG2.2.15 cell lysates; assay type: cell-based, Hepatitis B virus; settings: HepG2.2.15 cell lysate
Method: as §1

HBV core = assay: Western blot of intracellular HBV core in HepG2.2.15 cell lysates; assay type: cell-based, Hepatitis B virus; settings: HepG2.2.15 cell lysate
Method: as §1

HepG2.2.15 cells = assay: MTT cytotoxicity assay, HepG2.2.15; assay type: cell-based, human; settings: 48 h, 0 to 200 μM, five repetitions
Method: Cells were seeded in 96-well plates (10^4 cells per well) and cultured in DMEM containing 10% FBS in 5% CO2 at 37 °C for 12 h. Then, peptides were added to the medium in a serial of concentrations. The concentrations ranged from 0 to 200 μM. Five repetitions were set for each concentration. After 48 h of incubation, 20 μL of MTT solution (5 mg/mL in PBS buffer; Invitrogen, Foster, CA, USA) was added to the medium in each well, and the plate was incubated in 5% CO2 at 37 °C for 4 h. Then, the medium was replaced by 100 μL DMSO. To completely dissolve the precipitated crystal purple formazan, the plate was then gently shaken for 10 min at room temperature. The absorbance at a wavelength of 570 nm was measured using a microplate reader (BioTek, Winooski, VT, USA).

HBx protein = assay: Western blot of intracellular HBx protein in HepG2.2.15 cell lysates; assay type: cell-based, Hepatitis B virus; settings: HepG2.2.15 cell lysate
Method: as §1

## CC[C@H](C)[C@@H]1NC(=O)[C@H](CO)NC(=O)[C@H](CCC(N)=O)NC(=O)[C@@H]2CSSC[C@@H](C(=O)N[C@@H](Cc3ccc(O)cc3)C(=O)N[C@@H](CCCNC(=N)N)C(=O)O)NC(=O)[C@H](C(C)C)NC(=O)[C@@H]3CSSC[C@H](NC(=O)[C@H](CCC(N)=O)NC(=O)CNC(=O)[C@H](CCC(N)=O)NC(=O)[C@H](CC(N)=O)NC(=O)[C@H](Cc4ccccc4)NC(=O)[C@@H]4CCCN4C(=O)[C@@H](NC(=O)CNC(=O)[C@H](Cc4ccccc4)NC(=O)CN)CSSC[C@H](NC(=O)[C@H](Cc4ccc(O)cc4)NC(=O)CNC(=O)CNC(=O)[C@H](CCCNC(=N)N)NC(=O)[C@H](CCCNC(=N)N)NC(=O)[C@H](CCCNC(=N)N)NC1=O)C(=O)N[C@@H](CC(=O)O)C(=O)NCC(=O)N[C@@H](Cc1ccccc1)C(=O)N[C@@H](CC(C)C)C(=O)N[C@@H](CCCCN)C(=O)N[C@@H]([C@@H](C)O)C(=O)N[C@@H](CCCNC(=N)N)C(=O)N3)C(=O)N[C@@H](Cc1c[nH]cn1)C(=O)N[C@@H](CCCCN)C(=O)N[C@@H](Cc1c[nH]cn1)C(=O)N2 [BmKDfsin4] (HELM PEPTIDE1{G.F.G.C.P.F.N.Q.G.Q.C.H.K.H.C.Q.S.I.R.R.R.G.G.Y.C.D.G.F.L.K.T.R.C.V.C.Y.R}$PEPTIDE1,PEPTIDE1,4:R3-25:R3|PEPTIDE1,PEPTIDE1,11:R3-33:R3|PEPTIDE1,PEPTIDE1,15:R3-35:R3$$$V2.0; N-terminus and C-terminus assumed; bridges inferred)
Human erythrocytes
  HC50 (50% hemolysis concentration): 66.85 µM
HBsAg
  intracellular HBsAg level: almost undetectable
HBV RT
  inhibitory activity against intracellular HBV RT: significantly concentration-dependent inhibition
HBV core
  inhibitory activity against intracellular HBV core: significantly concentration-dependent inhibition
HepG2.2.15 cells
  CC50 (50% cytotoxicity concentration), HepG2.2.15: 167.82 µM
HBx protein; 5 μM
  intracellular HBx protein level: only a slight band
HBx protein; 10 μM
  intracellular HBx protein level: totally undetectable
